Results from ChEMBL document CHEMBL3885881, “DrugMatrix”.

Organism: Rattus norvegicus
Format: toxicity, organism-based, Sprague-Dawley
Conditions: in vivo, po, 24 h, route oral GAVAGE, time 1 day; for ABSOLUTE BASOPHIL / ABSOLUTE EOSINOPHIL / ABSOLUTE LYMPHOCYTE / ABSOLUTE MONOCYTE / BASOPHIL / EOSINOPHIL / ERYTHROCYTE COUNT / HEMATOCRIT / HEMOGLOBIN / LEUKOCYTE COUNT / LYMPHOCYTE / MEAN CORPUSCULAR HEMOGLOBIN / MEAN CORPUSCULAR HEMOGLOBIN CONCENTRATION / MEAN CORPUSCULAR VOLUME / MONOCYTE / NEUTROPHIL / PLATELET COUNT: tissue Blood; for ALANINE AMINOTRANSFERASE / ALBUMIN / ALKALINE PHOSPHATASE / ASPARTATE AMINOTRANSFERASE / BLOOD UREA NITROGEN / CARBON DIOXIDE / CHLORIDE / CHOLESTEROL / CREATINE PHOSPHOKINASE / CREATININE / GLUCOSE / LIPASE / PHOSPHORUS / POTASSIUM / SODIUM / TOTAL BILIRUBIN / TOTAL PROTEIN / URIC ACID / LACTATE DEHYDROGENASE: tissue Plasma
[1] = 0 mg/kg, vehicle control, dose level Control, vehicle 100 % SALINE
[2] = 2 mg/kg, dose level High, vehicle 100 % SALINE
[3] = 0 mg/kg, dose level Control, vehicle .5 % CMC
[4] = 10 mg/kg, dose level Low, vehicle .5 % CMC
[5] = 100 mg/kg, dose level High, vehicle .5 % CMC

Description: DrugMatrix - Regimen: Single

COc1cccc2c1C(=O)c1c(O)c3c(c(O)c1C2=O)C[C@@](O)(C(C)=O)C[C@@H]3O[C@H]1C[C@H](N)[C@H](O)[C@H](C)O1 [DAUNORUBICIN]
ABSOLUTE BASOPHIL [1]: 73.3 cells/µL | ABSOLUTE EOSINOPHIL [1]: 86.7 cells/µL | ABSOLUTE LYMPHOCYTE [1]: 8400 cells/µL | ABSOLUTE MONOCYTE [1]: 350 cells/µL | BASOPHIL [1]: 0.63% | EOSINOPHIL [1]: 0.73% | ERYTHROCYTE COUNT [1]: 6.55 x10E6/uL | HEMATOCRIT [1]: 42.83% | HEMOGLOBIN [1]: 13.6 G/DL | LEUKOCYTE COUNT [1]: 11.33 x10E3/uL | LYMPHOCYTE [1]: 74.77% | MEAN CORPUSCULAR HEMOGLOBIN [1]: 20.77 pg | MEAN CORPUSCULAR HEMOGLOBIN CONCENTRATION [1]: 31.7 G/DL | MEAN CORPUSCULAR VOLUME [1]: 65.53 fL | MONOCYTE [1]: 3% | NEUTROPHIL [1]: 20.2% | PLATELET COUNT [1]: 1394.33 x10E3/uL | ALANINE AMINOTRANSFERASE [1]: 34 u/L | ALBUMIN [1]: 4.03 G/DL | ALKALINE PHOSPHATASE [1]: 345.33 u/L | ASPARTATE AMINOTRANSFERASE [1]: 69.67 u/L | BLOOD UREA NITROGEN [1]: 14.33 mg/dL | CARBON DIOXIDE [1]: 46 mmol/L | CHLORIDE [1]: 102.67 MEQ/L | CHOLESTEROL [1]: 85 mg/dL | CREATINE PHOSPHOKINASE [1]: 292 u/L | CREATININE [1]: 0.2 mg/dL | GLUCOSE [1]: 168 mg/dL | LIPASE [1]: 13 u/L | PHOSPHORUS [1]: 11.2 mg/dL | POTASSIUM [1]: 7.07 MEQ/L | SODIUM [1]: 144.67 MEQ/L | TOTAL BILIRUBIN [1]: 0.27 mg/dL | TOTAL PROTEIN [1]: 6.57 G/DL | URIC ACID [1]: 0.73 mg/dL | ABSOLUTE BASOPHIL [2]: 30 cells/µL | ABSOLUTE EOSINOPHIL [2]: 60 cells/µL | ABSOLUTE LYMPHOCYTE [2]: 7160 cells/µL | ABSOLUTE MONOCYTE [2]: 260 cells/µL | BASOPHIL [2]: 0.33% | EOSINOPHIL [2]: 0.67% | ERYTHROCYTE COUNT [2]: 6.43 x10E6/uL | HEMATOCRIT [2]: 42.57% | HEMOGLOBIN [2]: 13.5 G/DL | LEUKOCYTE COUNT [2]: 9.23 x10E3/uL | LYMPHOCYTE [2]: 77.03% | MEAN CORPUSCULAR HEMOGLOBIN [2]: 21.03 pg | MEAN CORPUSCULAR HEMOGLOBIN CONCENTRATION [2]: 31.73 G/DL | MEAN CORPUSCULAR VOLUME [2]: 66.3 fL | MONOCYTE [2]: 2.83% | NEUTROPHIL [2]: 18.5% | PLATELET COUNT [2]: 1328.67 x10E3/uL | ALANINE AMINOTRANSFERASE [2]: 37.33 u/L | ALBUMIN [2]: 3.93 G/DL | ALKALINE PHOSPHATASE [2]: 397.67 u/L | ASPARTATE AMINOTRANSFERASE [2]: 67.67 u/L | BLOOD UREA NITROGEN [2]: 13.67 mg/dL | CARBON DIOXIDE [2]: 39.33 mmol/L | CHLORIDE [2]: 104.67 MEQ/L | CHOLESTEROL [2]: 84 mg/dL | CREATINE PHOSPHOKINASE [2]: 230.33 u/L | CREATININE [2]: 0.27 mg/dL | GLUCOSE [2]: 179 mg/dL | LACTATE DEHYDROGENASE [2]: 60.33 u/L | LIPASE [2]: 9.67 u/L | PHOSPHORUS [2]: 11.57 mg/dL | POTASSIUM [2]: 6.13 MEQ/L | SODIUM [2]: 146 MEQ/L | TOTAL BILIRUBIN [2]: 0.2 mg/dL | TOTAL PROTEIN [2]: 6.37 G/DL | URIC ACID [2]: 1 mg/dL

CN(C)CCN(Cc1cccs1)c1ccccn1
ABSOLUTE EOSINOPHIL [3]: 47.5 cells/µL | ABSOLUTE LYMPHOCYTE [3]: 8340 cells/µL | ABSOLUTE MONOCYTE [3]: 260 cells/µL | BASOPHIL [3]: 0.33% | EOSINOPHIL [3]: 0.45% | ERYTHROCYTE COUNT [3]: 6.31 x10E6/uL | HEMATOCRIT [3]: 42.88% | HEMOGLOBIN [3]: 13 G/DL | LEUKOCYTE COUNT [3]: 10.38 x10E3/uL | LYMPHOCYTE [3]: 80.53% | MEAN CORPUSCULAR HEMOGLOBIN [3]: 20.6 pg | MEAN CORPUSCULAR HEMOGLOBIN CONCENTRATION [3]: 30.3 G/DL | MEAN CORPUSCULAR VOLUME [3]: 67.9 fL | MONOCYTE [3]: 2.4% | NEUTROPHIL [3]: 15.08% | PLATELET COUNT [3]: 1192.5 x10E3/uL | ALANINE AMINOTRANSFERASE [3]: 47 u/L | ALBUMIN [3]: 3.55 G/DL | ALKALINE PHOSPHATASE [3]: 460.75 u/L | ASPARTATE AMINOTRANSFERASE [3]: 71.75 u/L | BLOOD UREA NITROGEN [3]: 13.75 mg/dL | CARBON DIOXIDE [3]: 36.75 mmol/L | CHLORIDE [3]: 107.25 MEQ/L | CHOLESTEROL [3]: 85.25 mg/dL | CREATINE PHOSPHOKINASE [3]: 373 u/L | CREATININE [3]: 0.67 mg/dL | GLUCOSE [3]: 173.25 mg/dL | LACTATE DEHYDROGENASE [3]: 241.25 u/L | LIPASE [3]: 39.25 u/L | PHOSPHORUS [3]: 13.5 mg/dL | POTASSIUM [3]: 6.9 MEQ/L | SODIUM [3]: 153 MEQ/L | TOTAL BILIRUBIN [3]: 0.3 mg/dL | TOTAL PROTEIN [3]: 6.05 G/DL | URIC ACID [3]: 1.07 mg/dL | ABSOLUTE BASOPHIL [4]: 50 cells/µL | ABSOLUTE EOSINOPHIL [4]: 57.5 cells/µL | ABSOLUTE LYMPHOCYTE [4]: 6900 cells/µL | ABSOLUTE MONOCYTE [4]: 160 cells/µL | BASOPHIL [4]: 0.62% | EOSINOPHIL [4]: 0.68% | ERYTHROCYTE COUNT [4]: 6.69 x10E6/uL | HEMATOCRIT [4]: 45.23% | HEMOGLOBIN [4]: 13.75 G/DL | LEUKOCYTE COUNT [4]: 8.71 x10E3/uL | LYMPHOCYTE [4]: 79.03% | MEAN CORPUSCULAR HEMOGLOBIN [4]: 20.57 pg | MEAN CORPUSCULAR HEMOGLOBIN CONCENTRATION [4]: 30.38 G/DL | MEAN CORPUSCULAR VOLUME [4]: 67.67 fL | MONOCYTE [4]: 1.82% | NEUTROPHIL [4]: 16.77% | PLATELET COUNT [4]: 1228.25 x10E3/uL | ALANINE AMINOTRANSFERASE [4]: 48.75 u/L | ALBUMIN [4]: 3.7 G/DL | ALKALINE PHOSPHATASE [4]: 472.25 u/L | ASPARTATE AMINOTRANSFERASE [4]: 65.25 u/L | BLOOD UREA NITROGEN [4]: 13 mg/dL | CARBON DIOXIDE [4]: 38.5 mmol/L | CHLORIDE [4]: 107.25 MEQ/L | CHOLESTEROL [4]: 86.75 mg/dL | CREATINE PHOSPHOKINASE [4]: 250.75 u/L | CREATININE [4]: 0.67 mg/dL | GLUCOSE [4]: 167 mg/dL | LACTATE DEHYDROGENASE [4]: 129.25 u/L | LIPASE [4]: 38.5 u/L | PHOSPHORUS [4]: 12.45 mg/dL | POTASSIUM [4]: 6.83 MEQ/L | SODIUM [4]: 153.75 MEQ/L | TOTAL BILIRUBIN [4]: 0.3 mg/dL | TOTAL PROTEIN [4]: 6.32 G/DL | URIC ACID [4]: 0.98 mg/dL | ABSOLUTE BASOPHIL [5]: 130 cells/µL | ABSOLUTE EOSINOPHIL [5]: 55 cells/µL | ABSOLUTE LYMPHOCYTE [5]: 9590 cells/µL | ABSOLUTE MONOCYTE [5]: 430 cells/µL | BASOPHIL [5]: 0.95% | EOSINOPHIL [5]: 0.5% | ERYTHROCYTE COUNT [5]: 6.9 x10E6/uL | HEMATOCRIT [5]: 46.1% | HEMOGLOBIN [5]: 14.12 G/DL | LEUKOCYTE COUNT [5]: 11.89 x10E3/uL | LYMPHOCYTE [5]: 80.6% | MEAN CORPUSCULAR HEMOGLOBIN [5]: 20.48 pg | MEAN CORPUSCULAR HEMOGLOBIN CONCENTRATION [5]: 30.62 G/DL | MEAN CORPUSCULAR VOLUME [5]: 66.9 fL | MONOCYTE [5]: 3.62% | NEUTROPHIL [5]: 12.9% | PLATELET COUNT [5]: 1177.75 x10E3/uL | ALANINE AMINOTRANSFERASE [5]: 102.25 u/L | ALBUMIN [5]: 3.6 G/DL | ALKALINE PHOSPHATASE [5]: 460.75 u/L | ASPARTATE AMINOTRANSFERASE [5]: 150.5 u/L | BLOOD UREA NITROGEN [5]: 13.5 mg/dL | CARBON DIOXIDE [5]: 37.75 mmol/L | CHLORIDE [5]: 108 MEQ/L | CHOLESTEROL [5]: 61.5 mg/dL | CREATINE PHOSPHOKINASE [5]: 211.25 u/L | CREATININE [5]: 0.67 mg/dL | GLUCOSE [5]: 169.5 mg/dL | LACTATE DEHYDROGENASE [5]: 94.25 u/L | LIPASE [5]: 24.75 u/L | PHOSPHORUS [5]: 13.18 mg/dL | POTASSIUM [5]: 7.25 MEQ/L | SODIUM [5]: 154.25 MEQ/L | TOTAL BILIRUBIN [5]: 0.3 mg/dL | TOTAL PROTEIN [5]: 6.08 G/DL | URIC ACID [5]: 1.07 mg/dL
